In patent US20080206198A1, “Compounds and methods for pharmico-gene therapy of epithelial sodium channel associated disorders” (priority 2003, published 2008):
Peptide text beside a SMILES is read from it. * marks the point of attachment. Cbz = O=C(OCc1ccccc1)*

Columns and labels:
mice = test: Toxicity of proteasome inhibitors in mice (intra-tracheal and IV); format: in vivo, mouse; settings: 10, 100 and 1000 fold higher doses than used in polarized airway cells
Protocol: Long-term enhancement of rAAV transduction by proteasome inhibitor in vivo. To evaluate the potential utility of proteasome inhibitors for in vivo gene therapy, both the toxicity and efficacy of these agents for in vivo rAAV mediated gene transfer in the mouse lung was tested. To assess the toxicity of these proteasome inhibitors in mice, 10, 100, and 1000 fold higher effective doses of LLnL or Z-LLL were administered than used to induce gene transfer in polarized airway cells, using both intra-tracheal and systemic (IV) delivery. No toxicity was indicated by histologic evaluation of the lung and liver or was evidenced by the death of animals. To investigate whether these proteasome inhibitors could improve rAAV transduction in vivo, AV.LacZ (5×10^10 particles) was delivered either alone or in the presence of 400 μM Z-LLL by intranasal administration. Mouse lungs were harvested at 3, 10 and 150 days post-infection to evaluate short and long term effects. […] Targeted transgene expression was predominantly confined to the conducting airways, rather than in the parenchyma. Alveolar cells were rarely transduced. […] The range of transgene expression in distal and proximal airways was 0 to 4% and 5 to 18%, respectively.

liver = test: rAAV transduction in liver with Z-LLL; format: in vivo, mouse; settings: 1 month post-infection
Protocol: Recombinant AV.LacZ (5×10^10 particles) was also administered to mouse liver either as virus alone in PBS, virus in combination with 40 μM Z-LLL in PBS, or virus in combination with 20 μM LLnL in PBS. Virus was directly instilled into portal vein of the C57B6 mice. AAV-mediated LacZ transgene expression was evaluated by histology staining at 2 and 4 weeks post infection in frozen tissue sections.

mouse lung = test: Intranasal AAV2-Luc with anthracyclines in Balb/c mice (lung luciferase); format: in vivo; settings: 10% HDE intranasal, day 7
Source text: Animals were followed for seven days post dose.
The dose of modulator was based on the Human Dose Equivalent (HDE) and is summarized below in Table 4. For intranasal dose administration, the dose was held constant at 10% of the HDE.
On the day of sacrifice, the left lung was clamped off at the level of the extrapulmonary bronchi, removed and frozen on dry ice. The left lung was homogenized and processed for luciferase expression using Promega's luciferase assay system (Madison, Wis.). Luminescence was measured using the Berthold AutoLumat LB953 instrument. Samples were normalized for total protein using Pierce's Coomassie Plus Protein Assay Reagent (Rockford, Ill.).

[1] = test system: primary fetal fibroblasts; test: rAAV transduction of primary fetal fibroblasts; format: cell-based; settings: data not shown
Protocol: Hela, A549, IB3, and primary fetal fibroblasts were evaluated for AV2Luc and AV2/5Luc transduction in the presence of LLnL, Dox, or LLnL+Dox at various concentrations. The data shown is from Hela and A549 cells at the most optimal dose combination that induces rAV2Luc transduction to a greater extent than each compound alone.

ENaC = test: Amiloride-sensitive short-circuit current in polarized CF airway epithelia; format: cell-based, human; settings: data not shown
Protocol: Short-circuit current (Isc) measurement in polarized airway epithelia. Transepithelial short-circuit currents were measured using an epithelial voltage clamp and a self-contained Using chamber as described in Zabner et al. (1998). The basolateral side of the chamber was filled with Ringer's buffer solution containing 135 mM NaCl, 1.2 mM CaCl2, 2.4 mM KH2PO4, 0.2 mM K2HPO4, 1.2 mM MgCl2, and 5 mM HEPES, pH 7.4. The apical side of the chamber was filled with a low-chloride Ringer's containing 135 mM sodium gluconate, 1.2 mM CaCl2, 2.4 mM KH2PO4, 0.2 mM K2HPO4, 1.2 mM MgCl2, and 5 mM HEPES, pH 7.4. During the experiment, the chamber was maintained at 37° C. and aerated with 100% O2. Transepithelial voltage was clamped at zero, and the resulting Isc was measured and recorded following the sequential addition of the following channel antagonist and agonists: 1) 100 μM amiloride (apical), 2) 100 μM 4,4′-diisothiocyna-2,2′-disulfonic stilbene (DIDS) (apical), 3) 100 μM IBMX/10 μM forskolin (apical), 4) 100 μM bumetanide (basolateral). Voltage was referenced to the apical compartment. The series resistance of the Ringer's solution and transwell membrane was electrically compensated before starting experiments. All chemical agonists and antagonists were added to either the apical or the basolateral sides of the monolayer by direct injection and mixed by aerating the Ringer's solution. […]

A549 cells = test: rAAV transduction of A549 cells; format: cell-based, human; settings: for induction of rAAV transduction: 24 hours post-infection
Protocol: C. To determine whether combinations of agents that enhance rAAV transduction efficiency have synergistic or additive effects when used in combination, cells were contacted with the proteasome modulator, doxorubicin, and the proteasome inhibitor Z-LLL or LLnL. Different AAV vectors were tested, including splicing vectors and pseudotyped rAAV. Viral stocks utilized were as follows: Av2RSVluc, 5×10^8 particle/μl; Av2RSVlucCap5 (also referred to as Av2/5 CMVLuc), 2×10^9 particle/μl; Av2CMVluc, 1.3×10^9 particle/μl; and Av2CMVlucCap5, 1.1×109 particle/μl. Combinations of agents were compared to the agents used alone to determine the efficiency of transduction. LLnL was used at 40, 200 or 400 μM, Z-LLL at 4 μM and doxorubicin at 0.5 or 1 μM when employed alone. When a combination of LLnL and doxorubicin was used, LLnL was used at 4, 10, 20, 40, 200 or 400 μM and doxorubicin at 1 or 5 μM. The apical surface of polarized airway epithelia, HeLa cells or ferret fibroblast was contacted with the agents and rAAV (5×10^9 particles per well).
LLnL and Z-LLL are two tripeptidyl aldehydes shown to inhibit calpains, cathepsins, cysteine proteases as well as the chymotrypsin-like protease activity of proteasomes (Wagner et al., 2002; Donkor, 2000; Sasaki et al., 1990). […] Both classes of proteasome inhibitors bind tightly to the proteasome complex. Dose response curves for these two proteasome-modulating agents were evaluated on IB3, A549, Hela, and primary fibroblasts. The responses were consistent for a number of cell lines and for three different promoters driving luciferase expression. For one set, CMV-driven luciferase constructs with an AAV2-based genome were employed that were packaged into AV2 or AV5 capsids. Cells were infected at various doses of AV2Luc and AV2/5Luc (MOIs 100 to 1000 particles/cell). At the time of infection, cells were treated with various concentrations of LLnL or Doxorubicin and gene expression was assayed at 24 hours post-infection. The effect of proteasome inhibitors on nuclear uptake of virus was evaluated using a previously-described protocol for fractionating viral DNA in the cytoplasm and nucleus (Xiao et al., 2002). Viral DNA content in the cytoplasmic and nuclear fractions was then evaluated by slot blot hybridization against a Luciferase DNA probe.

Row | Compound | toxicity (histology of lung and liver, death of animals) (mice) | increase in rAAV transduction in the liver (liver) [fold] | luciferase expression, Average (mouse lung; both sexes) | luciferase expression, Average (mouse lung; female) | luciferase expression, Average (mouse lung; male) | induction of transduction [1] | inhibition of ENaC Isc by the single compound (ENaC) | concentration at which transduction was enhanced (A549 cells) [µM] | induction of rAAV transduction (A549 cells)
1 | CC(C)C[C@@H](C=O)NC(=O)[C@H](CC(C)C)NC(=O)[C@H](CC(C)C)NC(=O)OCc1ccccc1 [Z-LLL, N-carbobenzoxyl-L-leucinyl-L-leucinyl-L-leucinal] (Cbz-Leu-Leu-Leu-aldehyde) | No toxicity | 7 | – | – | – | – | – | – | –
2 | COc1cccc2c1C(=O)c1c(O)c3c(c(O)c1C2=O)C[C@@](O)(C(=O)CO)C[C@@H]3O[C@H]1C[C@H](N)[C@H](O)[C@H](C)O1 [doxorubicin] | – | – | 1.77E+06 | 5.44E+05 | *4.21E+06 | most significantly enhances transduction | equivalent inhibition of ENaC Isc as seen with combined Dox/LLnL | 5 | 200 fold
3 | N-acetyl-L-leucinyl-L-leucinal-L-norleucinal [LLnL] | No toxicity | – | – | – | – | 10 fold | – | 200 to 400 | 10-fold lower levels of induction
